Test system: murine dermal fibroblasts
Assay: RNA-Seq of newborn murine dermal fibroblasts
Assay type: cell-based, mouse
Details: 10^−7 M, 24 h; for number of genes solely downregulated / number of genes solely upregulated: FC ≥ 2
Procedure: All animal studies followed guidelines outlined by the NIH Guide for the Care and Use of Laboratory Animals and protocols were approved by the Institutional Animal Care and Use Committee at the NIEHS or the UAB. […] Skin samples from newborn C57BL/6 mice were collected at the NIEHS. Dermal fibroblasts were isolated from the skin of newborn mice, 1–2 day old. Briefly, we followed the protocols described previously. The skin was washed in PBS, cut into smaller pieces and incubated in 2.4 U/ml of dispase II (Roche) overnight at 4 °C. The dermis was separated from the epidermis and incubated in 0.1% collagenase (Roche) at 4 °C overnight. […] Single cell suspension was prepared by pipetting and draining through a cell strainer. After centrifugation, cell pellets were suspended in DMEM medium containing 10% charcoal-stripped fetal bovine serum (cFBS), mouse fibroblasts growth factor (FGF) and 1% antibiotic, and inoculated into tissue culture dishes (Midwest Scientific, TPP). Cells, in early passages, from different mice were pooled together to provide representative samples for experiments. Fibroblasts were cultured in Petri dishes (10 cm in diameter) in DMEM and 10% cFBS and triplicate semi-confluent cultures were treated as described.
Triplicate cultures of murine fibroblasts were used for RNA isolation (RNAeasy Micro kit, Qiagen), the RNA samples were combined for each condition and at least 200 ng of RNA for each sample was used to create libraries for RNA sequencing by BGI Americas Corporation Service (Cambridge, MA)[67]. Quality of RNA and its concentration were determined using Agilent 2100.
The raw sequence FASTQ files were aligned to Gencode’s GRCm38 p4 Release M11 genome using STAR version 2.5.4b (parameters used: –outReadsUnmapped Fastx; –outSAMtype BAM SortedByCoordinate; –outSAMattributes All; –outFilterIntronMotifs RemoveNoncanonicalUnannotated)[69]. The abundance of transcripts was calculated from the alignments using Cufflinks version 2.2.1 (parameters used: –G; –L; –library-type fr-firststrand). Samples were merged using default parameters with Cuffmerge[70],[71]. The differential expression was calculated using Cuffdiff’s default parameters. The raw data have been deposited at the NCBI GEO (GSE145818).

## C=C1/C(=C\C=C2/CCC[C@]3(C)[C@@H]([C@H](C)CCCC(C)(C)O)CC[C@@H]23)C[C@@H](O)C[C@@H]1O [1,25(OH)2D3, reference compound]
  Adh7 expression level: 1.042
  Aqp11 expression level: 0.9562
  Arid3b expression level: 1.268
  Bicd1 expression level: 0.7304
  Btc expression level: 0.9514
  Car9 expression level: 3.341
  Cbs expression level: 0.4189
  Ccl4 expression level: 0
  Cd68 expression level: 5.274
  Cd200 expression level: 0.3998
  Cherp expression level: 35.1454
  Clec2g expression level: 0
  Cnnm4 expression level: 11.9457
  Cox15 expression level: 15.3542
  Cpa2 expression level: 0.3127
  Ctrl expression level: 0.3422
  Dcun1d1 expression level: 6.457
  Defb42 expression level: 0.2302
  Dtx1 expression level: 0.2518
  Ehf expression level: 0.2831
  Ercc2 expression level: 13.8618
  Erh expression level: 2.728
  Fmnl1 expression level: 0.04415
  Gys2 expression level: 0
  Hist1h2ab expression level: 1.144
  Hist1h2bg expression level: 0.5636
  Hist1h2bh expression level: 0
  Hist1h4c expression level: 0
  Isl1 expression level: 0.2249
  Krt19 expression level: 14.9744
  Larp1b expression level: 2.787
  Lhx6 expression level: 3.883
  Lsm5 expression level: 0.9896
  M1ap expression level: 1.719
  Med9os expression level: 0.7826
  Nckipsd expression level: 15.4716
  Nr3c2 expression level: 0.1558
  Nr6a1 expression level: 0.3582
  Ntrk3 expression level: 0
  Parvg expression level: 0.1595
  Pde4dip expression level: 20.1604
  Psd4 expression level: 0.7259
  Ptpa expression level: 235.847
  Ptpn6 expression level: 2.532
  Rnu3a expression level: 0
  Rpph1 expression level: 0.655
  Rsad1 expression level: 1.447
  Saa1 expression level: 0.19
  Samd12 expression level: 0.7427
  Scn8a expression level: 0.3603
  Sgca expression level: 0.3791
  Slc15a4 expression level: 20.8062
  Slc16a5 expression level: 0.1731
  Snhg9 expression level: 3.721
  St7 expression level: 31.903
  Stmn1 expression level: 3.691
  Susd1 expression level: 2.151
  Syt8 expression level: 1.517
  Syt12 expression level: 0.9903
  Tldc2 expression level: 0.381
  Tnnc2 expression level: 0
  Unc5c expression level: 0.3264
  Wdr17 expression level: 0.7213
  Zbtb18 expression level: 5.623
  Zfp618 expression level: 1.668
  number of genes downregulated, FC ≥ 2: 566
  number of genes upregulated, FC ≥ 2: 601
  number of genes solely downregulated: 159 (15%)
  number of genes solely upregulated: 322 (21.4%)

## C=C1CCC(O)CC1=CC=C1CCCC2(C)C1CCC2C(C)(O)CC(O)CC(C)C (centres unmarked) [20,23(OH)2D3]
  Adh7 expression level: 1.158
  Adh7 log2(fold_change) vs control: 2.167
  Aqp11 expression level: 0.9828
  Aqp11 log2(fold_change) vs control: 2.131
  Arid3b expression level: 0.2183
  Arid3b log2(fold_change) vs control: -3.968
  Bicd1 expression level: 0.8132
  Bicd1 log2(fold_change) vs control: -1.4
  Btc expression level: 0.8829
  Btc log2(fold_change) vs control: 1.8593
  Car9 expression level: 2.126
  Car9 log2(fold_change) vs control: -2.151
  Cbs expression level: 0.2841
  Cbs log2(fold_change) vs control: -2.782
  Ccl4 expression level: 0.1702
  Ccl4 log2(fold_change) vs control: -2.322
  Cd68 expression level: 3.478
  Cd68 log2(fold_change) vs control: 1.602
  Cd200 expression level: 0.493
  Cd200 log2(fold_change) vs control: -1.526
  Cherp expression level: 31.4407
  Cherp log2(fold_change) vs control: -2.561
  Clec2g expression level: 0
  Clec2g log2(fold_change) vs control: -inf
  Cnnm4 expression level: 3.148
  Cnnm4 log2(fold_change) vs control: -4.001
  Cox15 expression level: 16.947
  Cox15 log2(fold_change) vs control: 1.531
  Cpa2 expression level: 0.3137
  Cpa2 log2(fold_change) vs control: -2.329
  Ctrl expression level: 0.115
  Ctrl log2(fold_change) vs control: -3.153
  Dcun1d1 expression level: 4.486
  Dcun1d1 log2(fold_change) vs control: -1.564
  Defb42 expression level: 0.09112
  Defb42 log2(fold_change) vs control: -3.331
  Dtx1 expression level: 0.6816
  Dtx1 log2(fold_change) vs control: -1.292
  Ehf expression level: 0.1594
  Ehf log2(fold_change) vs control: -2.391
  Ercc2 expression level: 13.0262
  Ercc2 log2(fold_change) vs control: -3.709
  Erh expression level: 2.145
  Erh log2(fold_change) vs control: -1.557
  Fmnl1 expression level: 0.08875
  Fmnl1 log2(fold_change) vs control: -3.4
  Gys2 expression level: 0
  Gys2 log2(fold_change) vs control: -inf
  Hist1h2ab expression level: 1.7305
  Hist1h2ab log2(fold_change) vs control: 2.585
  Hist1h2bg expression level: 0.5684
  Hist1h2bg log2(fold_change) vs control: -2
  Hist1h2bh expression level: 0
  Hist1h2bh log2(fold_change) vs control: -inf
  Hist1h4c expression level: 0
  Hist1h4c log2(fold_change) vs control: -inf
  Isl1 expression level: 0.3239
  Isl1 log2(fold_change) vs control: -1.316
  Krt19 expression level: 10.8799
  Krt19 log2(fold_change) vs control: 1.0982
  Larp1b expression level: 3.399
  Larp1b log2(fold_change) vs control: -2.948
  Lhx6 expression level: 2.278
  Lhx6 log2(fold_change) vs control: -2.362
  Lsm5 expression level: 1.07
  Lsm5 log2(fold_change) vs control: -1.322
  M1ap expression level: 1.3491
  M1ap log2(fold_change) vs control: 1.119
  Med9os expression level: 0.7965
  Med9os log2(fold_change) vs control: -1.386
  Nckipsd expression level: 11.1997
  Nckipsd log2(fold_change) vs control: 1.42
  Nr3c2 expression level: 0.3025
  Nr3c2 log2(fold_change) vs control: -1.869
  Nr6a1 expression level: 0.323
  Nr6a1 log2(fold_change) vs control: -2.52
  Ntrk3 expression level: 0.007819
  Ntrk3 log2(fold_change) vs control: -7.899
  Parvg expression level: 0.4359
  Parvg log2(fold_change) vs control: -1.7705
  Pde4dip expression level: 25.3974
  Pde4dip log2(fold_change) vs control: -7.279
  Psd4 expression level: 0.1525
  Psd4 log2(fold_change) vs control: -3.368
  Ptpa expression level: 177.146
  Ptpa log2(fold_change) vs control: 1.413
  Ptpn6 expression level: 0.3394
  Ptpn6 log2(fold_change) vs control: -5.148
  Rnu3a expression level: 0
  Rnu3a log2(fold_change) vs control: -inf
  Rpph1 expression level: 0.6606
  Rpph1 log2(fold_change) vs control: -1
  Rsad1 expression level: 1.045
  Rsad1 log2(fold_change) vs control: -1.592
  Saa1 expression level: 0
  Saa1 log2(fold_change) vs control: -inf
  Samd12 expression level: 1.71
  Samd12 log2(fold_change) vs control: -1.081
  Scn8a expression level: 0.1177
  Scn8a log2(fold_change) vs control: -2.776
  Sgca expression level: 0.3824
  Sgca log2(fold_change) vs control: -1.697
  Slc15a4 expression level: 15.7859
  Slc15a4 log2(fold_change) vs control: -1.861
  Slc16a5 expression level: 0.2329
  Slc16a5 log2(fold_change) vs control: -1.992
  Snhg9 expression level: 7.505
  Snhg9 log2(fold_change) vs control: -1.322
  St7 expression level: 25.5959
  St7 log2(fold_change) vs control: -1.436
  Stmn1 expression level: 6.591
  Stmn1 log2(fold_change) vs control: 2.0805
  Susd1 expression level: 1.936
  Susd1 log2(fold_change) vs control: 1.474
  Syt8 expression level: 0.7109
  Syt8 log2(fold_change) vs control: -2.1726
  Syt12 expression level: 0.9907
  Syt12 log2(fold_change) vs control: -2.055
  Tldc2 expression level: 0.1921
  Tldc2 log2(fold_change) vs control: -2.216
  Tnnc2 expression level: 0.313
  Tnnc2 log2(fold_change) vs control: -1.361
  Unc5c expression level: 0.1434
  Unc5c log2(fold_change) vs control: -2.931
  Wdr17 expression level: 1.106
  Wdr17 log2(fold_change) vs control: -1.028
  Zbtb18 expression level: 4.966
  Zbtb18 log2(fold_change) vs control: -3.168
  Zfp618 expression level: 1.583
  Zfp618 log2(fold_change) vs control: -1.597
  number of genes downregulated, FC ≥ 2: 540
  number of genes upregulated, FC ≥ 2: 437
  number of genes solely downregulated: 116 (11%)
  number of genes solely upregulated: 193 (12.8%)
